US9445605B2, “Method for disinfection or infection control against a non-enveloped virus” (Hiroshima University, priority 2006, dated 2016)

Assays:
Rotavirus Wa Strain = assay: Rotavirus infectivity after reagent treatment (fluorescent staining of MA104 cells); conditions: equal amounts of virus and reagent, 3 minutes at room temperature; for Residual infectivity after treatment: MA104 cells
Experimental: Equal amounts (35 μL) of a virus solution and a reagent were mixed, followed by reaction at room temperature for 3 minutes. A 10-fold dilution series was formed using a diluent (MEM) and the MA104 cells on a cover slip (9×28 mm) were infected with 50 μL of the virus solution. After adsorption for 1 hour, the cells were washed with PBS one time and a growth medium (10% PBS-MEM) was added, followed by culture.
One day after, fluorescent staining was performed with anti-rotavirus antibody (monoclonal antibody: Abgene REMEI-1) and Alexa Fluor 488-labeled anti-mouse IgG antibody (SantaCruz Biotechnology), and positive cells were counted in a field of view under a fluorescent microscope (400 times) (average area of 20 fields of view). The number of positive cells per cover slip was calculated on the basis of the area of the field of view, and further infectivity per mL of virus solution was calculated (unit: CIU (cell infecting units)/ml; Kiyotani et al., Virology 177:65-74, 1990). When the number of positive cells was small, the positive cells were measured by observing the whole of the cover slip.

[1] = Measurement of pH of the reagents; format: physicochemical; conditions: summary Table 9
Excerpt: Also, the experiment was repeated to confirm reproducibility.

Feline calicivirus = Feline calicivirus infectivity after reagent treatment (TCID50 in CRFK cells); format: cell-based; conditions: equal amounts of virus and reagent, 3 minutes at room temperature
Experimental: To eliminate the influence of serum contained in the original virus, a virus solution was previously 5 times diluted with a diluent (Eagle's minimum essential medium, penicillin G, streptomycin). Equal amounts (35 μL) of the diluted virus solution and each reagent were mixed and allowed to react at room temperature for 3 minutes. Then, a ten-fold dilution series was prepared using the diluent.
Monolayer CRFK cells on a 96-well plate were washed with PBS one time and then the diluted virus solution was inoculated (50 μl/well). After incubation with a CO2 incubator for adsorption and penetration of the virus for 1 hour, the cells were washed with PBS one time, and then a maintenance solution (the same as the diluent) was added (100 μL/well), followed by culture. Three days after, the cells were fixed and stained after extension of CPE, and a 50% infectious dose (unit: 50% tissue culture infectious dose [TCID50]) was calculated using a Behrens-Kaerber method to measure viral infectivity.

[2] = tested on: Coxsackie virus group B, type 5; assay: Coxsackie virus infectivity after reagent treatment (TCID50 in FL cells); format: cell-based
Experimental: The FL cells were infected with the virus, and a 50% infection dose (unit: 50% tissue culture infectious dose [TCID50]) was calculated.
To eliminate the influence of serum contained in original viruses, a virus solution was previously 50 times diluted with PBS.

[3] = tested on: Adenovirus (nonproliferating, adenovirus type-5-derived); assay: Adenovirus infectivity after reagent treatment (fluorescent staining of FL cells); format: cell-based
Experimental: Monolayer FL cells (cell line contaminated with HeLa cells (derived from human cervical cancer epithelial cells)) on the cover slip (9×28 mm) were washed with PBS one time and then infected with a 50 μL of virus solution. After adsorption for 1 hour, the cells were washed with PBS one time, and then a maintenance solution (the same as the diluent) was added, followed by culture.
Two days after, fluorescent staining was performed with anti-adenovirus antibody (monoclonal antibody: Chemicon MAB805) and Alexa Fluor 488-labeled anti-mouse IgG antibody (SantaCruz Biotechnology), and positive cells were counted in a field of view under a fluorescent microscope (400 times) (average of 20 fields of view was calculated).

[4] = equal amounts of virus and reagent, 3 minutes at room temperature
[5] = equal amounts of virus and reagent, 3 minutes at room temperature, FL cells

SMILES | Infectivity ratio (to PBS) (Rotavirus Wa Strain) | Residual infectivity after treatment (Rotavirus Wa Strain) [CIU/ml] | pH [1] | Effect (times) (to PBS) (Feline calicivirus) | Infectivity ratio (to PBS) (Feline calicivirus) | Infectivity (TCID50/ml) (Feline calicivirus; CRFK cells) | Anti-Coxsackie virus activity (in words) [2] | Effect (times) (to PBS) [2, 4] | Infectivity ratio (to PBS) [2, 4] | Infectivity (TCID50/ml) [2, 5] [TCID50/ml] | Inactivation activity for adenovirus (in words) [3] | Effect (times) (to PBS) [3, 4] | Infectivity ratio (to PBS) [3, 4] | Residual infectivity after treatment [3, 5] [CIU/ml]
CCO [80% (v/v) ethanol, ethanol] | 0 | 0 |  |  |  |  |  |  |  |  |  |  |  | 
CCO [50% (v/v) ethanol, ethanol] | 0.06 | 6.2E+05 | 5.09 | 12 | 0.09 | 3.2E+07 | no anti-Coxsackie virus activity | 1 | 1.778 | 3.2E+07 | no inactivation ability | 4 | 0.2 | 7.7E+07
